The values below come from patent US10238689B2, “Methods for combating bacterial infections by killing persister cells with mitomycin C and/or cisplatin” (THE PENN STATE RESEARCH FOUNDATION, priority 2015, dated 2019).

For one assay, the system named is pCA24N DNA. The assay can be described thus: In vitro crosslinking of DNA and denaturing agarose gel electrophoresis. Format: biochemical. Particulars: cisplatin 200 μM 1.5 h and 3.5 h; MMC 500 μg/mL; denaturing gel. On the procedure:
FIG. 10 provides data obtained from analysis of in vitro crosslinking of DNA with cisplatin and denaturing agarose gel electrophoresis. To produce the results shown in FIG. 10, pCA24N DNA (4518 bp) was in vitro crosslinked with cisplatin following a standard protocol. In brief, 2.2 μg of pCA24N DNA was linearized by HindIII digestion and cleaned using Wizard-SV gel and PCR clean-up system (Promega, Madison, Wis., USA). Linearized pCA24N was then treated with 200 μM (60 μg/mL) of cisplatin (Sigma-Aldrich, St. Louis, Mo., USA) for 1.5 h and 3.5 h at 37° C. The same amount of pCA24N DNA was also treated with an equivalent amount of 0.1M NaClO4 (solvent control for cisplatin) for 3.5 h at 37° C. Mitomycin C (MMC) was used as a positive control to compare types of crosslinking between cisplatin and MMC. For MMC, the same amount (2.2 μg) of pCA24N DNA was crosslinked essentially as in Example 1. In brief, linearized pCA24N DNA was treated with 500 μg/mL (1.5 mM) MMC or without MMC in 0.2 mM EDTA, 50 mM NaCl, and 5 mM Tris (pH 7.6) with Na2S2O4 added six times at 10 min intervals to reach a final concentration of 2.25 mM (1.5×molarity of MMC). The crosslinking reaction with MMC was performed anaerobically on ice and the reaction was stopped by exposure to air. […]

Assay [1] deals with P. aeruginosa PA14. Kind of assay: Minimum inhibitory concentration (MIC) assay. The class given is cell-based, Pseudomonas aeruginosa. On the procedure: Minimum inhibitory concentration (MIC) assay. To determine the MICs of cisplatin for E. coli K-12, enterohemorrhagic E. coli (EHEC), S. aureus, and P. aeruginosa (PAO1 and PA14), freshly inoculated cultures (at least two independent cultures) in buffered LB (TSB for S. aureus) were incubated for 16 h with varying concentrations of cisplatin, and growth inhibition was assayed by the lack of turbidity.

In assay [2] the test system is P. aeruginosa PA14. Kind of assay: Persister cell assay of pathogens (stationary phase), cisplatin vs MMC. Format: cell-based, Pseudomonas aeruginosa. Particulars: M9-glucose, 3 h. On the procedure:
For the persister cell assay of the pathogens, stationary-phase cells were used. Cultures of EHEC, P. aeruginosa, and S. aureus were prepared by a 1:1000 dilution of overnight grown cultures (LB medium for EHEC and P. aeruginosa, TSB for S. aureus) into fresh buffered LB medium for EHEC, M9-glucose for P. aeruginosa, and TSB for S. aureus and re-growing the cells to a turbidity of 3 to 4 at 600 nm for EHEC and S. aureus and growing for 24 h for P. aeruginosa. […]
NaClO4 (0.1M) was used as a solvent control. The viability of the cells was determined before and after cisplatin and MMC treatment. At least two independent cultures of each strain were used in each experiment.

Assay [3] has as its system P. aeruginosa PA14 and ΔtpbA biofilm cells. The assay can be described thus: Persister cell killing assay (biofilm cells). The class given is cell-based, Pseudomonas aeruginosa. Particulars: 3 h, 5×MIC (cisplatin 250 μg/mL, MMC 10 μg/mL), limit of detection 100 cells/mL. As for the experimental part: Persister cell killing assay (biofilm cells). […] Biofilm formation was assayed using the crystal violet staining method (Fletcher 1977) and was normalized by planktonic cell growth (turbidity at 620 nm) to account for any differences in growth rates. Data were averaged from 6 replicate wells using at least two independent cultures. […] NaClO4 (0.1M) was used as a solvent control for cisplatin. Cell viability in biofilms was assayed before and after the MMC and cisplatin treatments by removing supernatants (planktonic cells) from each well carefully, resuspending the biofilm in normal saline, and sonicating twice at 3W for 10 sec (Ueda and Wood 2009) to break apart the biofilm cells (due to the aggregative nature of P. aeruginosa ΔtpbA cells). Suspensions from multiple wells were combined to get an averaged sample. Then the cell suspensions were serially diluted in normal saline for a drop assay to check cell viability.

The test system of assay [4] is E. coli K-12 ΔuvrA, ΔuvrB, and ΔuvrC mutants. Kind of assay: Planktonic killing of uvr deletion mutants. The class given is cell-based, Escherichia coli. Particulars: mid-stationary phase, buffered LB. On the procedure:
In order to obtain exponential and mid-stationary phase cultures in LB, buffered LB or TSB, overnight cultures (16 h) were diluted 1:1000 in fresh medium and grown to the desired turbidity (i.e., a turbidity below 2 at 600 nm for exponential phase and a turbidity of 3 to 4 at 600 nm for mid-stationary phase). Late-stationary phase cultures in LB or buffered LB were obtained by growing overnight cultures (16 h). In order to obtain exponential and late-stationary phase cultures in M9-glucose, overnight cultures (16 h) were washed diluted 1:1000 in M9-glucose and grown for the desired period of time (i.e., a turbidity of 0.4 at 600 nm for exponential phase and 24 h of growth for late-stationary phase). Anaerobically grown cultures were maintained with ˜20% CO2, ˜79% N2, and ˜1% H2. In order to obtain rifampicin-induced persister cultures in buffered LB, overnight cultures (16 h) were diluted 1:1000 in fresh medium and grown to a turbidity of 0.8 at 600 nm. Cultures were exposed to rifampicin (100 μg/mL) for 30 min, centrifuged, and resuspended in fresh medium to remove the rifampicin.

[5] abbreviates: 1×MIC (cisplatin 50 μg/mL, MMC 2 μg/mL).
Where [6] appears, read: 5×MIC (cisplatin 250 μg/mL, MMC 10 μg/mL).

In brackets after ≈: the same amount, converted by molar mass. Entries after “also recorded” stand apart in the source; their conditions may differ.

Take `CO[C@@]12[C@H](COC(N)=O)C3=C(C(=O)C(C)=C(N)C3=O)N1C[C@@H]1N[C@@H]12` [MMC, mitomycin C]: in the assay on pCA24N DNA, the “type of DNA crosslinking in vitro” value was “crosslinks inter-strand DNA”. Further, the “MIC (1×MIC)” value against P. aeruginosa PA14 [1] came to 2 µg/mL (≈ 5.98 µM). In addition, the values for the survival with P. aeruginosa PA14 [2] (setting [5]) and in the assay with P. aeruginosa PA14 [2] (setting [6]) were 5±2% and 0.0056±0.0004%, respectively. Further, the “cell viability of biofilm cells” value in assay [3] (PA14 biofilm) and in assay [3] (ΔtpbA biofilm) was “could not eradicate” in each case. For the same molecule, the “time of treatment to eradication (beyond the limit of detection)” value in assay [4] is on record as “less than 30 min”.

Consider `N.N.[Cl][Pt][Cl]` [cisplatin, cis-diamminodichloroplatinum(II)], for which the “type of DNA crosslinking in vitro” value with pCA24N DNA is on record as “crosslinks the same strand of DNA; also recorded: crosslinks intra-strand DNA”. The “MIC (1×MIC)” value against P. aeruginosa PA14 [1] amounted to 50 µg/mL. Besides, the survival result is given as “completely eradicated” in the assay on P. aeruginosa PA14 [2] (setting [5]) and “eradicated” with P. aeruginosa PA14 [2] (setting [6]). In addition, the “cell viability of biofilm cells” value in assay [3] (PA14 biofilm) and in assay [3] (ΔtpbA biofilm) was “completely eradicated” each time.
